The test system of assay [1] is Plasmodium berghei. In words: Antimalarial activity against Plasmodium berghei infected mice (Mus musculus) at 320 mg/kg; toxic in 5 of 5. In kind it is functional, organism-based. Details: dose 320 mg/kg.
Assay [2] relates to Plasmodium berghei. In words: Antimalarial activity against Plasmodium berghei infected mice (Mus musculus) at 640 mg/kg; toxic in 5 of 5. In kind it is functional, organism-based. Details: dose 640 mg/kg.
Assay [3] has as its system Plasmodium berghei. As to the kind of experiment: Antimalarial activity as increased MST in Plasmodium berghei infected mice (Mus musculus) at 20 mg/kg. In kind it is functional.
The test system of assay [4] is Plasmodium berghei. In words: Antimalarial activity as increased MST in Plasmodium berghei infected mice (Mus musculus) at 40 mg/kg; Toxic in 1 of 5. The assay is classed as functional.
In assay [5] the test system is Plasmodium berghei. As to the kind of experiment: Increased mean survival time in drug-sensitive Plasmodium berghei infected mice (Mus musculus) at 640 mg/kg; toxic in 4 of 5. The assay is classed as functional.
Assay [6] has as its system Plasmodium berghei. As to the kind of experiment: Increased mean survival time in drug-sensitive Plasmodium berghei infected mice (Mus musculus) at 80 mg/kg; cured 3 of 5. In kind it is functional, organism-based. Details: dose 80 mg/kg.
Assay [7] relates to Plasmodium berghei. In words: (§1) Increased mean survival time in drug-sensitive Plasmodium berghei infected mice (Mus musculus) at 160 mg/kg; cured 5 of 5. In kind it is functional, organism-based. Details: dose 160 mg/kg.
For assay [8], the system named is Plasmodium berghei. In words: Increased mean survival time in drug-sensitive Plasmodium berghei infected mice (Mus musculus) at 20 mg/kg; cured 1 of 5. The assay is classed as functional, organism-based. Set-up: dose 20 mg/kg.
Assay [9] concerns Plasmodium berghei. As to the kind of experiment: Increased mean survival time in drug-sensitive Plasmodium berghei infected mice (Mus musculus) at 320 mg/kg dose. The assay is classed as functional.
For assay [10], the system named is Plasmodium berghei. In words: Increased mean survival time in drug-sensitive Plasmodium berghei infected mice (Mus musculus) at 40 mg/kg; cured 3 of 5. In kind it is functional, organism-based. Set-up: dose 40 mg/kg.
The test system of assay [11] is Plasmodium berghei. In words: Increased mean survival time in drug-sensitive Plasmodium berghei infected mice (Mus musculus) at 320 mg/kg; cured 2 of 5. In kind it is functional, organism-based. Set-up: dose 320 mg/kg.
In assay [12] the test system is Plasmodium berghei. As to the kind of experiment: Increased mean survival time in drug-sensitive Plasmodium berghei infected mice (Mus musculus) at 80 mg/kg; cures 3 of 5. Set-up: dose 80 mg/kg. The assay is classed as functional, organism-based.
Assay [13] deals with Plasmodium berghei. The assay is described as §1. In kind it is functional.
In assay [14] the test system is Plasmodium berghei. As to the kind of experiment: Increased mean survival time in drug-sensitive Plasmodium berghei infected mice (Mus musculus) at 40 mg/kg; cured 1 of 5. The assay is classed as functional, organism-based. Set-up: dose 40 mg/kg.
Assay [15] deals with Plasmodium berghei. In words: Antimalarial activity against Plasmodium berghei infected mice (Mus musculus) at 320 mg/kg; toxic in 1 of 5. In kind it is functional, organism-based. Set-up: dose 320 mg/kg.
Assay [16] deals with Plasmodium berghei. In words: Increased mean survival time in drug-sensitive Plasmodium berghei infected mice (Mus musculus) at 20 mg/kg dose. The assay is classed as functional.
In assay [17] the test system is Plasmodium berghei. As to the kind of experiment: Antimalarial activity as increased MST in Plasmodium berghei infected mice (Mus musculus) at 160 mg/kg. The assay is classed as functional.
Assay [18] has as its system Plasmodium berghei. As to the kind of experiment: Antimalarial activity as increased MST in Plasmodium berghei infected mice (Mus musculus) at 40 mg/kg. In kind it is functional.
Assay [19] deals with Plasmodium berghei. As to the kind of experiment: Antimalarial activity as increased MSTin Plasmodium berghei infected mice (Mus musculus) at 640 mg/kg; Toxic in 3 of 5. In kind it is functional.

The values below come from ChEMBL document CHEMBL1122447, “2-Acetylpyridine thiosemicarbazones. 5. 1-[1-(2-Pyridyl)ethyl]-3-thiosemicarbazides as potential antimalarial agents” (1983).

In the case of `CC(N/N=C(\S)N(C)C)c1ccccn1` (stereo not given), the Survival time entry in assay [1] is “Toxic in 5 of 5 mice”; in assay [2], “Toxic in 5 of 5 mice”; in assay [3], 2 days; in assay [4] it was 3.2 days.
On to `C/C(=N\N=C(/S)N1CC2CCC(CC2)C1)c1ccccn1`, for which the Survival time in assay [5] is 0.4 days; in assay [6], “Cured 3 of 5 mice”; in [7], “Cured 5 of 5 mice”; in assay [8] it was “Cured 1 of 5 mice”; in assay [9], 0.2 days; in assay [10], “Cured 3 of 5 mice”.
For `CC(N/N=C(\S)N1CCN(c2ccccn2)CC1)c1ccccn1` (stereo not given), the Survival time entry is “Cured 2 of 5 mice” in assay [11]; “Cured 3 of 5 mice” in assay [12]; 5 days in assay [13]; “Cured 1 of 5 mice” in assay [14]; “Toxic in 1 of 5 mice” in assay [15]; “Toxic in 5 of 5 mice” in assay [2]. Further, in [16], the Survival time came out at 0.4 days.
As for `CC(N/N=C(\S)NCc1ccccc1)c1ccccn1` (stereo not given), the Survival time was 0.7 days in assay [17], -0.1 days in assay [18] and 2.4 days in [19].
